Source: PMC7041945, “Misfolded proteins bind and activate death receptor 5 to trigger apoptosis during unresolved endoplasmic reticulum stress” (eLife, 2020)

Tests used:
HCT116 cells = experiment: Annexin V (and SytoxBlue) flow cytometry for apoptosis; assay type: cell-based, Homo sapiens
Outline: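 HCT116 cells transfected with the specified plasmid for 24 hr, trypsinized and allowed 30 min recovery at 37°C. Stained with Annexin V-AlexaFluor 647 (1:20) for 15 min at RT in the dark; apoptotic cell distribution determined by flow cytometry.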

[1] = tested on: CHOP, BiP, and DR5 mRNA in HCT116 cells; experiment: qPCR of UPR target transcripts (CHOP, BiP, DR5); assay type: cell-based, Homo sapiens
Procedure: Cells were grown in 6-well plates and harvested with 0.5 ml of TRIzol reagent (Life Technologies) per manufacturer’s protocol to extract RNA. For cDNA synthesis, 500 ng of total RNA was reverse transcribed with 2 μl of the SuperScript VILO master mix (Life Technologies # 11755050) in a total reaction volume of 10 μl following the manufacturer’s protocol for reaction temperature and duration. The reverse transcription product was diluted to 200 μl with 10 mM Tris-HCl pH 8.2 and used at 1:100 dilution for subsequent RT-PCR reactions.
PCR samples were prepared as described by manufacturer’s protocols from iQ SYBR Green Supermix (BioRad #17088800).
For each experiment, qRT-PCR reactions were set up in triplicate and run using a CFX96 Real Time System (Bio-Rad). Quantitation cycles were determined with CFX Manager 3.0 software (Bio-Rad) and then normalized to GAPDH as an internal control.

[2] = empty + Tg, siRNA non-targeting, stain AnnexinV-647, 2018-06-27
[3] = siRNA scrambled, 2017-01-17 Replicate
[4] = siRNA scrambled, 2018-06-21 Rep 1
[5] = siRNA scrambled, 2018-06-21 Rep 2
[6] = siRNA scrambled, mean of 3 replicates
[7] = 24 hr, Rep 2, relative to empty traffo, mean of 3 replicates
[8] = 24 hr, Rep 2, relative to empty traffo, replicate 1
[9] = 24 hr, Rep 2, relative to empty traffo, replicate 2
[10] = 24 hr, Rep 2, relative to empty traffo, replicate 3
[11] = HCT116, 100 nM for 24 hours, avg., norm to GAPDH
[12] = HCT116, 100 nM for 24 hours, replicate 1
[13] = HCT116, 100 nM for 24 hours, replicate 2
[14] = HCT116, 100 nM for 24 hours, replicate 3
[15] = HCT116, 100 nM for 24 hours, vs GAPDH, replicate 1
[16] = HCT116, 100 nM for 24 hours, vs GAPDH, replicate 2
[17] = HCT116, 100 nM for 24 hours, vs GAPDH, replicate 3
[18] = HCT116, 100 nM Tg for 24 hours, mean of 3 replicates
[19] = HCT116, 100 nM Tg for 24 hours, replicate 1
[20] = HCT116, 100 nM Tg for 24 hours, replicate 2
[21] = HCT116, 100 nM Tg for 24 hours, replicate 3
[22] = qPCR Rep 2, WT MPZ GFP 1000 ng, or empty traffo + Tg, mean of 3
[23] = qPCR Rep 2, WT MPZ GFP 1000 ng, or empty traffo + Tg, replicate 1
[24] = qPCR Rep 2, WT MPZ GFP 1000 ng, or empty traffo + Tg, replicate 2
[25] = qPCR Rep 2, WT MPZ GFP 1000 ng, or empty traffo + Tg, replicate 3
[26] = qPCR Rep 2, WT MPZ GFP 1000 ng, or empty traffo + Tg, vs avg GAPDH, replicate 1
[27] = qPCR Rep 2, WT MPZ GFP 1000 ng, or empty traffo + Tg, vs avg GAPDH, replicate 2
[28] = qPCR Rep 2, WT MPZ GFP 1000 ng, or empty traffo + Tg, vs avg GAPDH, replicate 3

## C/C=C(/C)C(=O)O[C@H]1C(C)=C2[C@H]([C@@H]1OC(=O)CCCCCCC)[C@@](C)(OC(C)=O)C[C@H](OC(=O)CCC)[C@@]1(O)[C@H]2OC(=O)[C@@]1(C)O [thapsigargin, reference compound]
HCT116 cells; [2]
  AnnexinV+ (Statistic): 18.2
  AnnexinV- (Statistic): 81.8
HCT116 cells; empty w Tg vs. empty
  Difference between means: 28 ± 7.5
HCT116 cells; no siDR5, mean ± SEM, N=3, values agree with avg Annexin V+
  Mean ± SEM (Prism T-tests, Annexin V for MPZ-GFP): 35 ± 6.7 N=3
HCT116 cells; [3]
  Annexin V+: 48.1
  Annexin V-: 51.9
HCT116 cells; siRNA scrambled, 2018-01-17 MPZ, gate all cells/Single Cells/AnnexinV+, Tg sample with empty construct
  AnnexinV+ (Statistic, single cells): 48.1
HCT116 cells; siRNA scrambled, 2018-01-17 MPZ, gate all cells/Single Cells/AnnexinV-, Tg sample with empty construct
  AnnexinV- (Statistic, single cells): 51.9
HCT116 cells; siRNA scrambled, 2018-01-17 MPZ, gate all cells/Single Cells/GFP+, Tg sample with empty construct
  GFP+ (Statistic, single cells): 0.011
HCT116 cells; siRNA scrambled, 2018-01-17 MPZ, gate all cells/Single Cells/GFP-, Tg sample with empty construct
  GFP- (Statistic, single cells): 100
HCT116 cells; siRNA scrambled, 2018-01-17 MPZ, gate all cells/Single Cells/Q1, Tg sample with empty construct
  Q1: APC-A- , DAPI-A+ (Statistic, single cells): 10.8
HCT116 cells; siRNA scrambled, 2018-01-17 MPZ, gate all cells/Single Cells/Q2, Tg sample with empty construct
  Q2: APC-A+ , DAPI-A+ (Statistic, single cells): 31.2
HCT116 cells; siRNA scrambled, 2018-01-17 MPZ, gate all cells/Single Cells/Q3, Tg sample with empty construct
  Q3: APC-A+ , DAPI-A- (Statistic, single cells): 13.1
HCT116 cells; siRNA scrambled, 2018-01-17 MPZ, gate all cells/Single Cells/Q4, Tg sample with empty construct
  Q4: APC-A- , DAPI-A- (Statistic, single cells): 45
HCT116 cells; siRNA scrambled, 2018-01-17 MPZ, gate all cells/Single Cells/SytoxBlue+, Tg sample with empty construct
  SytoxBlue+ (Statistic, single cells): 40.3
HCT116 cells; siRNA scrambled, 2018-01-17 MPZ, gate all cells/Single Cells/SytoxBlue-, Tg sample with empty construct
  SytoxBlue- (Statistic, single cells): 59.7
HCT116 cells; siRNA scrambled, 2018-01-17 MPZ, gate dead cells of all events, Tg sample with empty construct
  dead cells (Statistic): 26.5
HCT116 cells; siRNA scrambled, 2018-01-17 MPZ, gate dead cells/Single Cells/FITC-A+, Tg sample with empty construct
  FITC-A+ (Statistic, dead cells): 0.016
HCT116 cells; siRNA scrambled, 2018-01-17 MPZ, gate dead cells/Single Cells/FITC-A-, Tg sample with empty construct
  FITC-A- (Statistic, dead cells): 100
HCT116 cells; [4]
  Annexin V+: 32.2
  Annexin V-: 67.8
HCT116 cells; [5]
  Annexin V+: 25.7
  Annexin V-: 74.3
HCT116 cells; [6]
  avg Annexin V+: 35.3333
  avg Annexin V-: 64.6667
[1]; [7]
  avg. fold induction CHOP: 2.825
  avg. fold induction DR5 total: 2.175
[1]; [8]
  fold induction CHOP: 2.975
  fold induction DR5 total: 2.222
[1]; [9]
  fold induction CHOP: 2.927
  fold induction DR5 total: 2.286
[1]; [10]
  fold induction CHOP: 2.573
  fold induction DR5 total: 2.0182
[1]; 24 hr, Rep 2, replicate 1
  2^-(deltaCq) CHOP: 0.03423
  2^-(deltaCq) DR5 total: 0.06479
  Cq CHOP: 23.6206
  Cq DR5 total: 22.7
  Cq(sample) - avg Cq(GAPDH), CHOP: 4.869
  Cq(sample) - avg Cq(GAPDH), DR5 total: 3.948
[1]; 24 hr, Rep 2, replicate 2
  2^-(deltaCq) CHOP: 0.03367
  2^-(deltaCq) DR5 total: 0.06665
  Cq CHOP: 23.6444
  Cq DR5 total: 22.6592
  Cq(sample) - avg Cq(GAPDH), CHOP: 4.892
  Cq(sample) - avg Cq(GAPDH), DR5 total: 3.9072
[1]; 24 hr, Rep 2, replicate 3
  2^-(deltaCq) CHOP: 0.0296
  2^-(deltaCq) DR5 total: 0.05885
  Cq CHOP: 23.8304
  Cq DR5 total: 22.839
  Cq(sample) - avg Cq(GAPDH), CHOP: 5.078
  Cq(sample) - avg Cq(GAPDH), DR5 total: 4.087
[1]; [11]
  avg. fold induction relative to empty traffo, BiP: 12.0843 fold
  avg. fold induction relative to empty traffo, CHOP: 7.5114 fold
  avg. fold induction relative to empty traffo, DR5 total: 5.041 fold
[1]; [12]
  fold induction relative to empty traffo, BiP: 11.9233 fold
  fold induction relative to empty traffo, CHOP: 7.102 fold
  fold induction relative to empty traffo, DR5 total: 5.4959 fold
[1]; [13]
  fold induction relative to empty traffo, BiP: 12.5755 fold
  fold induction relative to empty traffo, CHOP: 7.658 fold
  fold induction relative to empty traffo, DR5 total: 4.966 fold
[1]; [14]
  fold induction relative to empty traffo, BiP: 11.754 fold
  fold induction relative to empty traffo, CHOP: 7.775 fold
  fold induction relative to empty traffo, DR5 total: 4.661 fold
[1]; [15]
  2^-(deltaCq) BiP: 1.038
  2^-(deltaCq) CHOP: 0.07495
  2^-(deltaCq) DR5 total: 0.08912
[1]; [16]
  2^-(deltaCq) BiP: 1.095
  2^-(deltaCq) CHOP: 0.08082
  2^-(deltaCq) DR5 total: 0.08052
[1]; [17]
  2^-(deltaCq) BiP: 1.023
  2^-(deltaCq) CHOP: 0.08206
  2^-(deltaCq) DR5 total: 0.07558
[1]; [18]
  GAPDH avg. fold induction relative to empty traffo: 1.006
  GFP avg. fold induction relative to empty traffo: 0.1103
[1]; HCT116, 100 nM Tg for 24 hours, melt curves for these primers showed two peaks, mean of 3 replicates
  ERO1alpha (386+387) avg. fold induction relative to empty traffo: 0.8588
[1]; HCT116, 100 nM Tg for 24 hours, melt curves for these primers showed two peaks, replicate 1
  ERO1alpha (386+387) fold induction relative to empty traffo: 0.8482
[1]; HCT116, 100 nM Tg for 24 hours, melt curves for these primers showed two peaks, replicate 2
  ERO1alpha (386+387) fold induction relative to empty traffo: 0.8572
[1]; HCT116, 100 nM Tg for 24 hours, melt curves for these primers showed two peaks, replicate 3
  ERO1alpha (386+387) fold induction relative to empty traffo: 0.8711
[1]; [19]
  GADD34 (388+389) fold induction relative to empty traffo: 11.4671
  GAPDH fold induction relative to empty traffo: 1.083
  GFP fold induction relative to empty traffo: 0.1161
[1]; [20]
  GADD34 (388+389) fold induction relative to empty traffo: 11.4954
  GAPDH fold induction relative to empty traffo: 1.089
  GFP fold induction relative to empty traffo: 0.1176
[1]; [21]
  GADD34 (388+389) fold induction relative to empty traffo: 10.9924
  GAPDH fold induction relative to empty traffo: 0.847
  GFP fold induction relative to empty traffo: 0.09722
[1]; [22]
  avg. fold induction relative to WT MPZ DMSO, BiP: 6.727 fold
  avg. fold induction relative to WT MPZ DMSO, CHOP: 9.899 fold
  avg. fold induction relative to WT MPZ DMSO, DR5 total: 3.489 fold
[1]; [23]
  fold induction relative to WT MPZ DMSO, BiP: 6.3 fold
  fold induction relative to WT MPZ DMSO, CHOP: 10.9106 fold
  fold induction relative to WT MPZ DMSO, DR5 total: 3.205 fold
[1]; [24]
  fold induction relative to WT MPZ DMSO, BiP: 6.984 fold
  fold induction relative to WT MPZ DMSO, CHOP: 9.299 fold
  fold induction relative to WT MPZ DMSO, DR5 total: 3.841 fold
[1]; [25]
  fold induction relative to WT MPZ DMSO, BiP: 6.897 fold
  fold induction relative to WT MPZ DMSO, CHOP: 9.4871 fold
  fold induction relative to WT MPZ DMSO, DR5 total: 3.4208 fold
[1]; [26]
  2^-(deltaCq) BiP: 1.043
  2^-(deltaCq) CHOP: 0.04115
  2^-(deltaCq) DR5 total: 0.04765
[1]; [27]
  2^-(deltaCq) BiP: 1.156
  2^-(deltaCq) CHOP: 0.03507
  2^-(deltaCq) DR5 total: 0.05711
[1]; [28]
  2^-(deltaCq) BiP: 1.142
  2^-(deltaCq) CHOP: 0.03578
  2^-(deltaCq) DR5 total: 0.05086
